The target of test [1] is T1, HIV-1 protease (Human immunodeficiency virus type 1 group M subtype B, UniProt P04585). Description: biochemical. The following applies: read-out: HIV-1 FITC KI. An outline of the steps:
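Ki from two-fold serial inhibitor dilutions (24–48 concentrations) with 40 nM HIV-1 protease stock and 200 μM substrate stock, 90 min at room temperature; stopped with avidin beads. Reference inhibitor run in parallel; Ki by nonlinear least-squares fit.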

Test [2] has as its target T1, HIV-1 protease. Description: biochemical. The following applies: for inhibition at 0.123 µM: read-out: HIV-1 Protease % Inhib, dose 0.123 uM; for inhibition at 0.37 µM: read-out: HIV-1 Protease % Inhib, dose 0.370 uM; for inhibition at 1.1 µM: read-out: HIV-1 Protease % Inhib, dose 1.100 uM; for inhibition at 3.3 µM: read-out: HIV-1 Protease % Inhib, dose 3.300 uM; for inhibition at 10 µM: read-out: HIV-1 Protease % Inhib, dose 10.000 uM; for inhibition at 30 µM: read-out: HIV-1 Protease % Inhib, dose 30.000 uM; for inhibition at 0.41 µM: read-out: HIV-1 Protease % Inhib, dose 0.410 uM; for inhibition at 1.23 µM: read-out: HIV-1 Protease % Inhib, dose 1.230 uM; for inhibition at 3.7 µM: read-out: HIV-1 Protease % Inhib, dose 3.700 uM; for inhibition at 11 µM: read-out: HIV-1 Protease % Inhib, dose 11.000 uM; for inhibition at 33 µM: read-out: HIV-1 Protease % Inhib, dose 33.000 uM; for inhibition at 100 µM: read-out: HIV-1 Protease % Inhib, dose 100.000 uM. In outline: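 Biotinylated, FITC-labeled peptide substrate (20 μl of 0.2 μM) incubated with HIV-1 protease (10 μl of 0.1 μM) and compound in 0.1 M sodium acetate pH 5.5, 1.0 M NaCl, 0.05% NP-40, 1 h, room temperature, dark. Streptavidin beads then capture uncleaved substrate; filtered labeled product read by fluorescence, giving percent inhibition.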

Molecules are shown by their SMILES.

By Ki is commonly meant a dissociation constant, usually derived from enzyme kinetics or from competition with a known ligand. In the case of `CCC(=O)C1CCCCCc2c1oc(=O)c(C(c1ccccc1)C1CC1)c2O` (stereo not drawn) [Example 174, 3-(Cyclopropylphenylmethyl)-5,6,7,8,9,10-hexahydro-4-hydroxy-10-(1-oxopropyl)-2H-cycloocta[b]pyran-2-one], in test [1], the Ki turned out to be 35 nM. For the same compound, in test [2], the inhibition at 0.123 µM amounted to 11.4%, the inhibition at 0.37 µM was determined as 35.8%, the inhibition at 1.1 µM was determined as 75% and the inhibition at 3.3 µM stood at 95.9%. In test [2], the inhibition at 10 µM is 104% and the inhibition at 30 µM is 97.8%.
As for `CCCS(=O)(=O)Nc1cccc(C(c2c(O)c3c(oc2=O)CCCCCC3)C2CC2)c1` (stereo not drawn) [Example 324, N-[3-[Cyclopropyl(5,6,7,8,9,10-hexahydro-4-hydroxy-2-oxo-2H-cycloocta[b]pyran-3-yl)methyl]phenyl]-1-propanesulfonamide], the Ki in test [1] came out at 4 nM. For the same compound, in test [2], the inhibition at 0.123 µM is 44.3%, the inhibition at 0.37 µM came out at 87.5%, the inhibition at 1.1 µM is 103% and the inhibition at 3.3 µM is 108%. For the same compound, in test [2], the inhibition at 10 µM worked out at 116% and the inhibition at 30 µM stood at 117%.
As to `O=c1oc2c(c(O)c1C(c1cccc(NS(=O)(=O)c3cccc(CO)c3)c1)C1CC1)CCCCCC2` (stereo not drawn) [Example 356, N-[3-[Cyclopropyl(5,6,7,8,9,10-hexahydro-4-hydroxy-2-oxo-2H-cycloocta[b]pyran-3-yl)methyl]phenyl]-3-[methanol]-benzenesulfonamide], the Ki in test [1] was found to be 1.32 nM. In test [2], the inhibition at 0.123 µM is 97.7%, the inhibition at 0.37 µM came out at 97.2%, the inhibition at 1.1 µM was 97.9% and the inhibition at 3.3 µM was determined as 101%. Further, in test [2], the inhibition at 10 µM turned out to be 102% and the inhibition at 30 µM was found to be 100%.
For the compound `O=c1oc2c(c(O)c1C(c1ccccc1)C1CC1)CCCCCC2CC1CCCCO1` (stereo not drawn) [Example 130, 3-(Cyclopropyl-phenyl-methyl)-4-hydroxy-10-(tetrahydro-pyran-2-ylmethyl)-5,6,7,8,9,10-hexahydro-cycloocta[b]pyran-2-one], the Ki in test [1] turned out to be 119 nM. Further, in test [2], the inhibition at 0.37 µM worked out at 14.7%, the inhibition at 1.1 µM is 54%, the inhibition at 3.3 µM amounted to 88.6% and the inhibition at 10 µM turned out to be 104%. Moreover, the inhibition at 30 µM in test [2] was 112%.
Turning to `CC(C)C(c1cccc(N)c1)c1c(O)c2c(oc1=O)CCCCCC2` (stereo not drawn) [Example 371, 3-[1-(3-Aminophenyl)-2-methylpropyl]-5,6,7,8,9,10-hexahydro-4-hydroxy-2H-cycloocta[b]pyran-2-one], the Ki in test [1] is 7.35 nM. Further, in test [2], the inhibition at 0.123 µM was determined as 86.8%, the inhibition at 0.37 µM is 109%, the inhibition at 1.1 µM is 110% and the inhibition at 3.3 µM was determined as 113%. In addition, in test [2], the inhibition at 10 µM is 108% and the inhibition at 30 µM was 110%.
For `O=c1oc2c(c(O)c1C(Cc1ccccc1)Cc1ccccc1)CCCCCC2` [Example 136, 3-(1-Benzyl-2-phenyl-ethyl)-4-hydroxy-5,6,7,8,9,10-hexahydro-cycloocta[b]pyran-2-one], in test [1], the Ki stood at 108 nM. Further, in test [2], the inhibition at 0.41 µM amounted to 56.6%, the inhibition at 1.23 µM was 80.1%, the inhibition at 3.7 µM was 90.1% and the inhibition at 11 µM came to 92.4%. For the same compound, in test [2], the inhibition at 33 µM came to 91.6% and the inhibition at 100 µM is 103%.
Regarding `O=c1oc2c(c(O)c1C(c1cccc(NS(=O)(=O)c3cccc(NS(=O)(=O)c4ccccc4)c3)c1)C1CC1)CCCCCC2` (stereo not drawn) [Example 350, N-[3-[Cyclopropyl(5,6,7,8,9,10-hexahydro-4-hydroxy-2-oxo-2H-cycloocta[b]pyran-3-yl)methyl]phenyl]-3-[(phenylsulfonyl)amino]-benzenesulfonamide], the Ki in test [1] is 6.6 nM. Further, in test [2], the inhibition at 0.123 µM stood at 22.2%, the inhibition at 0.37 µM is 64.3%, the inhibition at 1.1 µM came to 82.2% and the inhibition at 3.3 µM was determined as 98.3%. Moreover, in test [2], the inhibition at 10 µM is 102% and the inhibition at 30 µM is 101%.
For the compound `O=c1oc2c(c(O)c1C(c1cccc(NS(=O)(=O)c3cccc(NO)c3)c1)C1CC1)CCCCCC2` (stereo not drawn) [Example 353 (Second Title Compound), N-[3-[Cyclopropyl(5,6,7,8,9, 10-hexahydro-4-hydroxy-2-oxo-2H-cycloocta[b]pyran-3-yl)methyl]phenyl]-3-(hydroxyamino)-benzenesulfonamide], the Ki in test [1] amounted to 2.4 nM. Moreover, in test [2], the inhibition at 0.123 µM is 61.4%, the inhibition at 0.37 µM came out at 92.7%, the inhibition at 1.1 µM was determined as 103% and the inhibition at 3.3 µM stood at 110%. Moreover, in test [2], the inhibition at 10 µM came out at 113% and the inhibition at 30 µM is 107%.
Consider `O=c1oc2c(c(O)c1C(c1ccccc1)C1CC1)CCCCC2CC1CC1` (stereo not drawn) [Example 125, 9-Cyclopropylmethyl-3-(cyclopropyl-phenyl-methyl)-4-hydroxy-6,7,8,9-tetrahydro-5-H-cyclohepta[b]pyran-2-one], for which, in test [1], the Ki turned out to be 24 nM. In addition, in test [2], the inhibition at 0.41 µM was 101%, the inhibition at 1.23 µM was 108%, the inhibition at 3.7 µM stood at 108% and the inhibition at 11 µM was 108%. Also, in test [2], the inhibition at 33 µM is 102% and the inhibition at 100 µM was 105%.
As to `C=CS(=O)(=O)Nc1cccc(C(c2c(O)c3c(oc2=O)CCCCCC3)C2CC2)c1` (stereo not drawn) [Example 316, N-[3-[Cycloproopyl(5,6,7,8,9,10-hexahydro4-hydroxy-2-oxo-2H-cycloocta[b]pyran-3-yl)methyl]phenyl]-ethenesulfonamide], the Ki in test [1] came out at 18 nM. Further, in test [2], the inhibition at 0.37 µM is 31.2%, the inhibition at 1.1 µM was found to be 77.8%, the inhibition at 3.3 µM turned out to be 98.1% and the inhibition at 10 µM came out at 103%. The inhibition at 30 µM in test [2] came to 111%.
`COC(=O)c1cccc(S(=O)(=O)Nc2cccc(C(c3c(O)c4c(oc3=O)CCCCCC4)C3CC3)c2)c1` (stereo not drawn) [Example 354, 3-[[[3-[Cyclopropyl(5,6,7,8,9,10-hexahydro-4-hydroxy-2-oxo-2H-cycloocta[b]pyran-3-yl)methyl]phenyl]amino]sulfonyl]-benzoic acid, methyl ester]: the Ki in test [1] is 1.45 nM. Further, in test [2], the inhibition at 0.123 µM amounted to 71.4%, the inhibition at 0.37 µM worked out at 86.4%, the inhibition at 1.1 µM turned out to be 96.1% and the inhibition at 3.3 µM is 100%. Besides, in test [2], the inhibition at 10 µM was determined as 103% and the inhibition at 30 µM stood at 108%.
With `COCCC1CCCCc2c1oc(=O)c(C(c1ccccc1)C1CC1)c2O` (stereo not drawn) [Example 194, 3-(Cyclopropylphenylmethyl)-6,7,8,9-tetrahydro4-hydroxy-9-(2-methoxyethyl)-cyclohepta[b]pyran-2(5H)-one], in test [1], the Ki came out at 28 nM. Moreover, the “HIV-1 Protease % Inhib” value in test [2] (dose 1.100 uM) stood at 81.89%; in test [2] (dose 3.300 uM) it was 102.84%; in test [2] (dose 10.000 uM) it was 108.17%; in test [2] (dose 30.000 uM), 107.45%. Moreover, the inhibition at 0.37 µM in test [2] came out at 39.7%.
As for `Nc1cc(NS(=O)(=O)c2ccccc2)cc(C(c2c(O)c3c(oc2=O)CCCCCC3)C2CC2)c1` (stereo not drawn) [Example 486], the Ki in test [1] came out at 55 nM. Besides, in test [2], the inhibition at 0.37 µM amounted to 40%, the inhibition at 1.1 µM stood at 74%, the inhibition at 3.3 µM amounted to 97.5% and the inhibition at 10 µM stood at 126%. In addition, the inhibition at 30 µM in test [2] came to 109%.

These data come from patent US5686486A, “4-hydroxy-benzopyran-2-ones and 4-hydroxy-cycloalkyl[b]pyran-2-ones useful to treat retroviral infections” (priority 1995, dated 1997).
